Assay results from patent publication US8569467B2, “C-glycoside compounds, and method for preparing C-glycoside compounds” (Ecole Nationale Supérieure de Chimie de Rennes, priority 2008, dated 2013).
Values joined by “and” are separate entries in the source; they are usually repeats but may differ in a detail not shown here. Identical values can stand only once.

Columns and labels:
[1] = Effect on the cloud temperature of the reference surfactant C6E2; assay type: physicochemical
Experimental: Finally, the effects of various C-glycoside compounds obtained according to the invention on the cloud temperature of a surfactant were tested in order to evaluate the advantage thereof for the stabilisation of the formulations.
The surfactant taken as a reference is C6E2, diethylene glycol monohexylether.

[2] = Tensiometric measurements of CMC/MAC and interface tension; assay type: physicochemical; settings: tensiometric measurement
Text: Tensiometric measurements, namely the measurement of the CMC (Critical Micelle Concentration) and the MAC (Minimal Aggregation Concentration) were made on various compounds obtained according to the invention.

[3] = C6E2 (1% weight) + product (10% weight)
[4] = C6E2 (1% weight) + product (1% weight)

Structure (SMILES)	Cloud temp [1, 3]	CMC*/MAC** (Critical Micelle Concentration / Minimum Aggregation Concentration) [2]	γCMC/MAC*** (interface tension at the CMC/MAC) [2]	Cloud temp ([1]; C6E2 (1% weight) alone, reference surfactant)	Cloud temp [1, 4]
CCCCCC(=O)CC1O[C@H](CO)[C@H](O)[C@H](O)[C@H]1O (stereo partly shown) [1-C-(Galactosyl)-heptan-2-one]		17.5 mM	30 Mn · m^−1		
C=CCC(C)(O)C[C@@H]1OC(CO)[C@@H](O)C(O)C1O (single isomer, unassigned) [5-C(Glucosyl)-4-methylpent-1-ene-4-ol, 5-(C-Glucosyl)-4-methylpent-1-ene-4-ol]	44 °C	350 mM	34 Mn · m^−1		
CCCCCC(=O)CC1O[C@H](CO)[C@@H](O[C@@H]2O[C@H](CO)[C@H](O)[C@H](O)[C@H]2O)[C@H](O)[C@H]1O (stereo partly shown) [1-C-(Lactosyl)-heptan-2-one]		17 mM	30 Mn · m^−1		58 °C
CCCCCC(=O)C[C@@H]1OC(CO)[C@@H](O)C(O)C1O (stereo partly shown) [1-C-(Glucosyl)-heptan-2-one, 1-(C-Glucosyl)-heptan-2-one]			30 Mn · m^−1 and 28 Mn · m^−1		62 °C

Continued, values first:

Cloud temp [1, 3]	CMC*/MAC** (Critical Micelle Concentration / Minimum Aggregation Concentration) [2]	γCMC/MAC*** (interface tension at the CMC/MAC) [2]	Cloud temp ([1]; C6E2 (1% weight) alone, reference surfactant)	Cloud temp [1, 4]	Structure (SMILES)
39 °C					C=CCC(C)(O)C[C@@H]1OC(CO)[C@@H](O[C@@H]2OC(CO)[C@H](O)C(O)C2O)C(O)C1O (single isomer, unassigned) [5-C-(Lactosyl)-4-methylpent-1-ene-4-ol, 5-(C-Lactosyl)-4-methylpent-1-en-4-ol]
			34 °C		CCCCCCOCCOCCO [Example C6E2, diethylene glycol monohexylether, reference compound]
42 °C					C=CCC(C)(O)CC1O[C@H](CO)[C@H](O)[C@H](O)[C@H]1O (stereo partly shown) [5-C-(Galactosyl)-4-methylpent-1-ene-4-ol]
